The values below come from patent US20090028925A1, “Novel Phosphinic Acid-Containing Thyromimetics” (priority 2005, published 2009).

SMILES strings stand for the structures.

Series [1] relates to liver mitochondrial glycerol phosphate dehydrogenase (mGPDH) activity. Description: Subacute study in normal rats, continuous infusion: liver mGPDH activity. The class given is in vivo, rats (Sprague-Dawley). Particulars: continuous infusion 1 mg/kg/day. From the text: (§1) Efficacy endpoints include serum cholesterol, liver mitochondrial glycerol phosphate dehydrogenase (mGPDH) activity and the expression of relevant liver genes (e.g., the LDL-receptor, apoB, cpt-1, spot14 and apoAI). Safety parameters include heart weight, heart rate, heart mGPDH activity, the expression and key genes involved in cardiac structure and function (e.g., Serca2, HCN2, Kv1.5, MHCα, MHCβ, Alpha1c), and standard plasma chemistry analysis (liver enzymes, electrolytes, creatinine). Endocrine effects are monitored by analysis of serum thyroid stimulating hormone (TSH). [Taylor et al., Mol Pharmacol 52(3): 542-7 (1997); Weitzel et al., Eur J Biochem 268(14):4095-4103 (2001)]
(§2) Methods: mGPDH activity was analyzed in isolated mitochondria using 2-(4-iodophenyl)-3-(4-nitrophenyl)-5-phenyl tetrazolium chloride as the terminal electron acceptor (Gardner R S, Analytical Biochemistry 59:272 (1974)). Commercially available GPDH was used in each assay as a standard (Sigma, St. Louis, Mo.). Changes in levels of mRNA for liver and heart genes are analyzed using reverse transcriptase followed by real-time PCR analysis. The analysis is performed using an iCycler instrument (Biorad) and appropriate primers by means of standard methodology [e.g., Schwab D A et al. (2000) Life Sciences 66: 1683-94]. The amounts of mRNA are normalized to an internal control, typically, cyclophilin. Serum TSH is measured using an enzyme immunoassay (EIA) kit designed for rat TSH (Amersham Pharmacia Biotech, Arlington Heights, Ill.).
(§3) Normal rats (Sprague-Dawley) were maintained on a standard diet. […] The compounds were brought up to an appropriate volume using PBS and BSA to maintain solubility within the pump. The compounds were chemically stable in the excipient at 37° C. for 7 days.
(§4) Values are expressed as percent of control. (Table 4)

A further series has as its system heart mGPDH activity. The experiment in a line: Subacute study in normal rats, continuous infusion: heart mGPDH activity. The class given is in vivo, rats (Sprague-Dawley). Conditions: continuous infusion 1 mg/kg/day.
Text: as §1, §2, §3, §4

Series [2] can be described thus: Subacute study in normal rats, continuous infusion: heart weight. The class given is in vivo, rats (Sprague-Dawley). Particulars: continuous infusion 1 mg/kg/day.
Text: as §1, §3, §4

For the next series, the system named is liver triglycerides. Description: Hepatic triglyceride content in normal rats, chronic infusion. Conditions: normal rats chronically infused for 7 days. The class given is in vivo. The protocol:
Normal rats were chronically infused with Compound 7 for 7 days. Liver triglycerides were analyzed following lipid extraction by the Bligh Dyer method (Bligh E G and Dyer W J, A rapid method of total lipid extraction and purification. Can J Med. Sci. 1959 (August); 37(8):911-7, incorporated herein by reference). Total triglycerides were analyzed in the liver extracts by an enzymatic assay (Thermo Electron Corporation). Total lipid was normalized to initial liver weight and triglyceride content was normalized to liver weight. […] There was a 4% reduction in liver triglycerides for this group and the results were not statistically significant.

The conditions of series [3]: rat, in vivo, 28 days. The protocol:
Compound 18 was administered at doses up to 5 mg/kg/d. Compound cis-13-1 was administered at doses up to 50 mg/kg/d. We reasoned that the ZDF rat, as a metabolically challenged animal model, would be more sensitive to the potential adverse cardiac effects of thyromimetics than a normal, cholesterol-fed rat. At sacrifice, heart rate, and the first derivative of left ventricular pressure (LV dP/dt) were measured with a Millar catheter inserted into the left ventricle.

On the set-up of series [4]: species or system rats. Particulars: rat, in vivo. The protocol: The oral bioavailability (OBAV) of Compound 12-1, a bis POM prodrug of Compound 7, was estimated by comparison of the dose-normalized area under the curve (AUC) of the plasma concentration-time profile of Compound 7 following IV and PO administration of Compound 7 and Compound 12-1, respectively, to normal rats.
Method: Groups of non-fasted male SD rats were administered either 5 mg/kg of Compound 7 by IV bolus or 20 mg/kg of Compound 12-1 by oral gavage. Prior to drug administration, the rats were catheterized at the tail artery to facilitate blood collection. Plasma samples were obtained at pre-specified time points following dosing, extracted with 1.5 volumes of methanol, and then assayed by an LC-UV method using a C18 column eluted with a gradient of 20% to 45% v/v acetonitrile in a potassium phosphate buffer pH 6.2 over 15 min with UV absorbance monitoring at 280 nm. The AUC values were determined noncompartmentally from the plasma concentration-time plots by trapezoidal summation to the last measurable time point.
Plasma levels of compound were analyzed by HPLC and the AUCs for the i.v. dose of 5 mg/kg and the p.o. dose of 20 mg/kg were compared. The maximum OBAV for Compound 19-2 was 0.003%. Typically, compounds that are taken forward as an oral drug candidate have OBAV values of at least 15-20%, when tested in an animal model. This minimal requirement for OBAV in a genetically homogenous model system insures that exposure can be accurately monitored when humans are treated with the compound. Furthermore, in a genetically variable background such as humans, the variability for a compound with low OBAV in genetically homogenous model systems, can be widely variable, leading some subjects to have much higher than anticipated exposure, while other subjects have no exposure.

A short description of series [5]: Whole animal resting oxygen consumption. The class given is in vivo, Sprague Dawley rats. The protocol:
Thermogenesis is a measurement of energy consumption. Compounds that increase thermogenesis are likely to increase caloric expenditure and thereby cause body weight loss and its associated benefits to metabolic status (e.g., insulin sensitivity). Thermogenesis is assessed in subcellular fractions of various tissues, isolated cells, whole tissues, or in whole animals using changes in oxygen consumption as the endpoint. Oxygen is used up when calories are burned by various metabolic processes. Methods: Animals are dosed once or several times a day via a parenteral or oral route for a treatment period ranging from 1 day to several weeks. Oxygen consumption is measured following a single or multiple days of treatment. In one assay, whole animal oxygen consumption is measured using an indirect calorimeter (Oxymax, Columbus Instruments, Columbus, Ohio). Animals are removed from their cages and placed in the chambers. The resting oxygen consumption is measured in animals during periods of inactivity as measured by activity monitors. The oxygen consumption is calculated based on the flow through the chamber and the difference in oxygen partial pressures at the inflow and outlet ports. Carbon dioxide (CO2) efflux is also measured in parallel using a CO2 electrode. […] Rats were placed in the FoxBox apparatus (Sable Systems, Las Vegas, Nev.), allowed to acclimate and the resting oxygen consumption was measured. The oxygen consumption rates were compared to pre-dose measurements taken on each individual animal. […] Thus, the compounds of the present invention are useful in increasing oxygen consumption.

The next series deals with plasma cholesterol. The experiment in a line: Cholesterol lowering in hypercholesterolemic rats. The class given is in vivo. Conditions: Rattus norvegicus, po; delivered p.o. (0.5 mg/kg/d); percentage change from pre-dose cholesterol; read-out: % Cholesterol Lowering.
A further series can be described thus: Glucose in ZDF rats. The class given is in vivo. The protocol: The decrease was dose dependent. Blood glucose levels at those doses corresponded to 442 mg/dL and 243 mg/dL, respectively. Similar changes were also evident at two weeks, post-treatment.
A short description of series [6]: Cardiovascular activity in the Sprague Dawley rat (HR, LV dP/dt, aortic pressure, heart weight). Type of series: in vivo. Conditions: SD rats, 7 days. The text has this:
Method: […] The control group (n=6) was given vehicle only. […] On the 7th day after the start of dosing, animals were anesthetized with Isofluorane and the left ventricle cannulated with a high fidelity catheter tip transducer via the right carotid artery. Left ventricular pressure, its first derivative (LVdP/dt), lead I ECG, and heart rate (HR) triggered off the ECG waveform, were digitally recorded. LV dP/dt is a well accepted measure of ionotropic state. Systolic and diastolic aortic pressures were measured by retracting the catheter into the proximal aorta.

In another series the test system is human hepatoma cells. Particulars: via thyroid hormone receptor activation; cited from earlier work.
The next series concerns serum cholesterol. The experiment in a line: Subacute study in cholesterol-fed rats, IP: serum cholesterol. The class given is in vivo. Particulars: IP once-a-day for seven days.
Series [7] is described as follows: Tissue distribution and pharmacokinetics following IP administration to normal rats. Particulars: 10 mg/kg IP. Type of series: in vivo, SD rats. The text has this:
At pre-selected time points following dosing, the rats were anesthetized using iso-fluorane and the peritoneal cavity was then opened and a blood sample was obtained from the abdominal vena cava. In addition, liver, kidney, and heart were excised and immersed in 3 volumes of cold 60% acetonitrile. The blood samples were briefly centrifuged and the plasma fraction was then extracted with 1.5 volumes of methanol, processed, and analyzed by LC-UV as described in Example G. The frozen liver, kidney, and heart tissue were homogenized in 60% v/v acetonitrile, centrifuged, and then analyzed by LC-UV. Pharmacokinetic parameters and AUC of the plasma and tissue concentration-time profiles were determined noncompartmentally by WinNonLin.

A short description of series [8]: Continuous infusion study in rats on a cholesterol-containing diet. The class given is in vivo. Conditions: continuous infusion 1 mg/kg/day.
Method: Screening for thyromimetic activity was performed in normal rats maintained on a cholesterol-containing diet. Compounds were administered by continuous infusion using an osmotic pump at 1 mg/kg/day.
Series [9] is described as follows: Subacute study in cholesterol-fed rats, IP: heart weight and heart mGPDH activity.
Method: The cholesterol-fed rat is an animal model of hypercholesterolemia generated by feeding the animals a diet with high cholesterol content.
Serum cholesterol values were assessed and the animals randomized into groups for treatment.

On to `N[C@@H](Cc1ccc(Oc2cc(I)c(O)c(I)c2)c(I)c1)C(=O)O` [Compound T3, 3,3′,5′-triiodothyronine, reference compound], for which the “Liver GPDH” value in series [1] is on record as 406% of control. In the series with heart mGPDH activity, the “Heart GPDH” value was 284% of control. For the same molecule, in series [2], the “Heart Weight” value was 146% of control. For the same molecule, the “reduction in liver triglycerides” value in the series with liver triglycerides worked out at 4%.
In the case of `Cc1cc(OC[P@@]2(=O)OCC[C@@H](c3cccc(Cl)c3)O2)cc(C)c1Cc1ccc(O)c(C(C)C)c1` [Compound cis-13-1], in [3] (ZDF), the “TI Improvement over Compound 18, ED15 HR” value is above 39 and the “TI Improvement over Compound 18, ED25 LV dP/dt” value is listed as above 102. Also, in [3], the “calculated TI with respect to LV dP/dt” value was > 10,000 and the “calculated TI with respect to heart rate” value is above 3900. Besides, in series [4], the “OBAV when AUC's of Compound cis-13-1 are used” value is reported as 25% and the “OBAV when comparing the AUC's of Compound 7” value is on record as 40-50%. For the same molecule, the “Oxygen consumption following treatment, % of the pre-dose rate” value in [5] (3 mg/kg/d orally for 14 days) is listed as 116%. Besides, the “Oxygen consumption following treatment, % of the pre-dose rate” value in series [5] (10 mg/kg/d orally for 14 days) is 125%. Besides, in [5] (30 mg/kg/d orally for 14 days), the “Oxygen consumption following treatment, % of the pre-dose rate” value came to 132%. Further, the change in vivo at 0.5 mg/kg/day in the series on plasma cholesterol is -31.8%. For the same molecule, in “Glucose in ZDF rats”, the water consumption entry is given as “dose-dependent decrease in the water consumption”. For the same molecule, in “Glucose in ZDF rats” (4 weeks of treatment, decreased from 618 mg/dL), the “Plasma glucose at sacrifice” value is recorded as 437 mg/dL. Further, in the series “Glucose in ZDF rats” (4 weeks of treatment, versus 442 mg/dL), the Blood glucose levels is reported as 243 mg/dL. The “HR, LV dP/dt, systolic and diastolic aortic pressures” value in series [6] (oral gavage 1, 5, 10, 30, 50 mg/kg/day) is “not significantly different compared to vehicle treated animals”. The “heart weight or heart weight/body weight ratios” value in series [6] (oral gavage 1-50 mg/kg/day) was “no significant changes in heart weight”.
Take `Cc1cc(NC(=O)C(=O)O)cc(C)c1Oc1ccc(O)c(C(C)C)c1` [CGS23425, [[4-[4-hydroxy-3-(1-methylethyl)phenoxy]-3,5-dimethylphenyl]amino]oxo acetic acid]: the apoAI expression entry with human hepatoma cells was “increased apoAI expression”.
On to `Cc1cc(OCC(=O)O)cc(C)c1Cc1ccc(O)c(C(C)C)c1` [Compound 17, [3,5-dimethyl-4-(4′-hydroxy-3′-iso-propylbenzyl)phenoxy]acetic acid, reference compound], for which the “Liver GPDH” value in [1] is reported as 426% of control. Also, in the series on heart mGPDH activity, the “Heart GPDH” value was 277% of control. In addition, in series [2], the “Heart Weight” value is 134% of control. Further, the “doses that significantly decreased serum cholesterol” value in the series on serum cholesterol lay in the range of 0.1 to 1 mg/kg/day. Further, in series [7], the “Heart AUC” value is 27.6 nmol·h/g, the “Kidney AUC” value is 1.1 nmol·h/g and the “Liver AUC” value is 48.5 nmol·h/g. In series [7] (male, SD, rat, plasma), the area under the curve (AUC) – broadly, concentration integrated over time – came to 2800 ng·h/mL; the Cmax (commonly the highest concentration seen after dosing) was 3490 ng/mL; the Tmax (commonly the time from dosing to the highest level) worked out at 20 min. For the same molecule, in [7] (male, SD, rat, plasma, read-out: Cl(observed)/F (converted)), the CL/F is 56 mL/min/kg. Besides, in series [7] (male, SD, rat, plasma, read-out: Vz(observed)/F), the Vd/F is 2.2 L/kg. Further, in [7] (plasma), the AUMClast was found to be 1.7683 μg * hr^2/mL and the Tlast was 2 h. In [8], the “increase of systolic and diastolic blood pressure” value is 30%. Besides, in series [8] (day 7), the cholesterol result was “significant decrease in cholesterol” and the “increase of heart rate” value is reported as 40%. Besides, in series [8] (day 14), the cholesterol result is “no significant decrease in cholesterol was observed”. For the same molecule, in series [8] (end-of-life), the “increase of LV dP/dt” value worked out at 71% and the left ventricular weight entry is given as “increased”. Besides, the cardiac hypertrophy entry in series [9] (IP once-a-day for seven days) is given as “cardiac hypertrophy was observed”. In series [9] (IP, 1 mg/kg/day), the “Cardiac GPDH activity” value is “increased”.
